Measured values from PubChem BioAssay AID179 (DTP/NCI, 2004).
Activity calls are given as the source filed them.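 Rule for the calls: active = compounds giving half or more protection of infected cells from virus-caused growth loss, again on retest; inactive = the rest.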 Where a SMILES comes first, the peptide text is derived from it. The star is where a group is joined. Fmoc = O=C(OCC1c2ccccc2-c2ccccc21)*; Boc = CC(C)(C)OC(=O)*

Test system: CEM cells HIV-1 protection, formazan growth assay
Assay: NCI AIDS Antiviral Assay
Settings: for IC50: measured here: growth of uninfected CEM cells
How it was run: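 Human CEM cells, uninfected and HIV-1-infected, exposed to five drug concentrations; growth measured by soluble formazan assay and scored as percent protection from infection, with protecting compounds retested.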

Row | SMILES | outcome | EC50 [µM] | IC50 [µM]
1 | Cc1ccc(S(=O)/C=C(\NC(=O)OCc2ccccc2)C(F)(F)F)cc1 (stereo not drawn) | inactive |  | 
2 | O=C1NC2=NN=C(c3ccc(Br)cc3)CN2NC12c1ccccc1-c1ccccc12 |  | > 100 | > 100
3 | Nc1c(Cl)ncnc1Nc1ccc(Cc2ccc(Nc3ncnc(Cl)c3N)cc2)cc1 |  | > 79.4 | > 79.4
4 | N#CCCN(C1=NN(C(=O)CC(=O)Nc2ccccc2Cl)C(c2ccccc2)C1)c1ccc(Cl)cc1 (stereo not drawn) |  | > 3.89 | > 3.89
5 | NC(=S)SC1=NNC2(C(=O)N1)c1ccccc1-c1ccccc12 |  | > 200 | 20.9
6 | CSc1c(C(C)=O)c(O)n(-c2ccc(Cl)cc2)c(=O)c1C#N |  | 35.5 | 36.3
7 | N#CC(C#N)=CN1C(=O)CNC1=S |  | > 200 | > 200
8 | COC(=O)c1ccccc1C1CN=NC12Cc1c(C)ccc(C)c1C2=O (stereo not drawn) |  | > 200 | 155
9 | CCCCCCCCCCOC(=O)c1cc[n+](C)cc1 | inactive |  | 
10 | O=c1/c(=C\c2ccccc2Cl)sc2n1CCN=2 | inactive |  | 
11 | COC(=O)C(=O)C(C(=O)C(=O)Nc1cccc(OC)c1)c1nc2ccc(Cl)cc2[nH]c1=O (stereo not drawn) |  | > 204 | 191
12 | O=C(CCc1nnc2s/c(=C\c3ccccc3)c(=O)n12)Nc1cc(Cl)ccc1Cl |  | > 11.7 | > 11.7
13 | O=c1onc2n1-c1cc(Cl)ccc1C(=S)N1CSCC21 (stereo not drawn) |  | > 200 | 105
14 | CC(=O)NC(CS/N=N/c1nc[nH]c1C(N)=O)C(=O)O (stereo not drawn) |  | > 200 | 0.38
15 | COC1CC(n2ccc(=O)[nH]c2=O)OC1CO (stereo not drawn) |  | > 200 | > 200
16 | O=C1CSC(Cc2nc3ccccc3[nH]2)=N1 |  | > 30.9 | > 30.9
17 | O=C(O/N=C1/CCCC/C1=C\c1ccccc1)c1ccc(Cl)c(Cl)c1 | inactive |  | 
18 | CCOC(=O)C/C(N)=C(\C#N)C(=O)OCC | inactive |  | 
19 | C=CCOc1ccccc1N=N/C(C#N)=N\Nc1ccccc1OCC=C |  | > 200 | 110
20 | COC1=CC(=O)C2C(C1=O)[C@@H]1c3ccccc3C[C@H]21 (stereo partly drawn) |  | > 195 | > 100
21 | COc1ccccc1C1C(Cl)C(=O)N1n1cnc2ccccc2c1=O (stereo not drawn) |  | > 52.5 | > 52.5
22 | O=[N+]([O-])c1ccc(C2=NOC(c3ccc(Cl)cc3)N2C23CC4CC(CC(C4)C2)C3)cc1 (stereo not drawn) |  | > 200 | 182

Row | SMILES | outcome | EC50 [µM] | IC50 [µM]
23 | Cc1nc2nc[nH]n2c1N=Nc1ccccc1 |  | > 200 | > 200
24 | Cc1nn(-c2ccccc2)c2[nH]c(=S)cnc12 |  | > 200 | 87.1
25 | O=C(O)/C=C/C=C/c1ccccc1 |  | > 200 | > 200
26 | O=S1(=O)c2ccccc2C(O)(c2ccccc2)c2ccccc21 |  | > 200 | 123
27 | OC[C@H]1NC[C@@H](O)[C@@H](O)[C@H]1O | inactive |  | 
28 | CC(=O)OCC1OC(n2c3c(cc(C#N)c2=S)CCC3)C(OC(C)=O)C(OC(C)=O)C1OC(C)=O (stereo not drawn) |  | > 200 | 102
29 | CCOC(=O)C1(c2ccccc2)C(=O)Oc2ccccc21 (stereo not drawn) |  | 13.2 | 64.6
30 | COc1ccc(N2C(=O)/C(=C\c3cc(OC)c(OC)c(OC)c3)S(=O)(=O)C2c2ccccc2)cc1 (stereo not drawn) |  | > 200 | 41.7
31 | CCOP(=O)(OCC)/C(=C/c1cccs1)CC(C)=O |  | > 200 | > 200
32 | O=C(O)c1[nH]c(C(=O)O)c(CC(F)(F)C(F)(F)C(F)(F)F)c1CC(F)(F)C(F)(F)C(F)(F)F | inactive |  | 
33 | c1ccc(C2=C(c3ccccc3)C23SCCS3)cc1 |  | > 200 | 33.9
34 | CCOC(=O)C(C)NC(=O)NC12CC3CC(CC(F)(C3)C1)C2 (stereo not drawn) |  | > 219 | > 200
35 | CS(=O)(=O)N/N=C/CN1C(=O)c2ccccc2C1=O |  | > 891 | > 891
36 | Cn1c2ccccc2c2cc(N3CCCC3)c3c(c21)C(=O)N(c1ccccc1)C3=O |  | > 200 | > 200
37 | CCOC(=O)c1cn(C)c2c1C(O)=C(C(=O)OC)CC(=O)N2 |  | > 234 | 178
38 | CC(NC(=O)c1ccccc1SC(=O)CCCCC[n+]1ccccc1)C(N)=O (stereo not drawn) |  | 2.75 | 30.2
39 | N#Cc1c(Sc2ccccc2N)cccc1Sc1ccccc1N |  | > 200 | > 200
40 | O=C(CC1C(=O)Nc2ccccc2S1=O)Nc1ccccc1 (stereo not drawn) |  | > 22.9 | > 22.9
41 | COC(=O)C1C2COc3ccccc3C2=NC1c1ccc([N+](=O)[O-])cc1 (stereo not drawn) |  | > 100 | 13.8
42 | COc1ccc2c3c(coc13)C(CCC(=O)O)CC2 (stereo not drawn) | inactive |  | 
43 | O=C(NC/C(Br)=C/Br)Nc1cnc2ccccc2c1 |  | > 200 | 81.3
44 | COc1ccc2occ(CCC(=O)O)c2c1 | inactive |  | 

Row | SMILES | outcome | EC50 [µM] | IC50 [µM]
45 | CC1CC2=C(S(=O)(=O)c3ccccc3)CC(S(=O)(=O)c3ccccc3)(S(=O)(=O)c3ccccc3)CC21 (stereo not drawn) |  | > 50.1 | > 50.1
46 | COc1ccc(-c2c3c(nc4nc(SCCc5ccccc5)nc(N)c24)CCCC3)cc1OC |  | > 200 | > 200
47 | COC(=O)C1CC23C=CCN4CC(C2C)C2(c5ccccc5NC12)C43 (stereo not drawn) |  | > 200 | 112
48 | Cc1cc(C)nc(NS(=O)(=O)c2ccc(Nc3c4ccc(Cl)cc4nc4ncccc34)cc2)n1 | inactive |  | 
49 | O=C1c2cccnc2S(=O)(=O)N1c1ccc(Oc2ccccc2)cc1 |  | > 200 | > 200
50 | CCOC(=O)C(=O)Nc1c(C)cccc1C |  | > 1120 | > 1120
51 | Oc1c2cc(Br)cc1CCc1cc(Br)cc(c1O)CC2 |  | > 200 | 25.7
52 | O=C1CC2C3C1N(c1ccc(Cl)cc1)C1(Nc4ccc(Cl)cc4)C(=O)CC(C31)N2c1ccc(Cl)cc1 (stereo not drawn) |  | > 200 | 33.9
53 | Cc1cc(C)nc(NS(=O)(=O)c2ccc(NC(=O)c3ccc(Cl)c4c(Nc5ccc(S(=O)(=O)Nc6cc(C)on6)cc5)c5ccccc5nc34)cc2)n1 |  | > 46.8 | > 46.8
54 | Nc1cc(=O)[nH]c(SC2=NC(N)CC(O)C2)n1 (stereo not drawn) | inactive |  | 
55 | C/C(=N/c1[nH]c(=O)cc2c1C(=O)CC2)N(C)C |  | > 200 | > 200
56 | O=C1C2CCC(C2)C12CC1(c3ccccc3)C(=O)c3ccccc3N1O2 (stereo not drawn) |  | > 28.8 | 27.5
57 | COc1nn(Cc2ccccn2)c2ccc([N+](=O)[O-])cc12 |  | > 200 | 135
58 | CCOC(=O)/C(C#N)=C/c1cccc(Br)c1 | inactive |  | 
59 | O=C1C(Cl)N(c2ccccc2)C1c1c[nH]c2ccccc12 (stereo not drawn) |  | > 316 | 288
60 | Cc1oc2nc(N(C)C)nc(Cl)c2c1C | inactive |  | 
61 | COc1cc(-c2cc(-c3cc(C)cc(Cl)c3O)nc3ncnc(N)c23)ccc1O |  | > 200 | 10.7
62 | CCC1(O)C(=O)Nc2ccc(OC)cc2C1=O (stereo not drawn) | inactive |  | 
63 | CCOP(=O)(OCC)C(C(=O)OC)C(=O)C(=O)Nc1cccc([N+](=O)[O-])c1 (stereo not drawn) |  | > 617 | > 617
64 | COc1ccc(C(O)c2nccn2C)c(OC)c1 (stereo not drawn) |  | > 200 | > 200
65 | NC(=O)c1cc2ccccc2[n+](Cc2ccc(F)cc2)c1 |  | 200 | 339
66 | CC(C)(C)OC(=O)NCCCCC(NC(=O)C(Cc1c[nH]c2ccccc12)NC(=O)OCC1c2ccccc2-c2ccccc21)C(=O)N1CCCC1C(=O)NCC(N)=O (stereo not drawn) (Fmoc-WK(Boc)PG-NH2; configuration not given here) |  | > 200 | > 200
